According to patent US10344060B2 (priority 2013, dated 2019):
Read-outs that look alike come from different tables or passages of the source.

Experiments:
[1] = system: male CD-1 mice; conditions: mouse, in vivo
[2] = target: T1, hNav1.4 (Homo sapiens, UniProt P35499); experiment: cell-based; format: cell-based; conditions: Table 12; for Nav1.4/Nav1.7: ratio of PX tonic IC50 values
[3] = target: T2, hNav1.7 (Homo sapiens, UniProt Q15858); experiment: cell-based; format: cell-based; conditions: read-out: PX hNav1.7 Tonic IC50
[4] = target: T2, hNav1.7; experiment: cell-based; format: cell-based; conditions: for block of hNav1.7 current: 100 nM
[5] = system: TTX-sensitive Nav channels in mouse DRG neuron; conditions: for 1.x/1.7: partially inactivated, mTTX-S / hNav1.7
[6] = target: hNav1.6 (Homo sapiens, UniProt Q9UQD0); experiment: cell-based; format: cell-based; conditions: for Nav1.6/Nav1.7 / IC50: Table 15; for Nav1.6/Nav1.7: ratio of PX tonic IC50 values; for IC50: read-out: PX hNav1.6 Tonic IC50
[7] = in vivo; conditions: male, CD-1, mouse, sc
[8] = for mean Cmax over the rat DRG Nav1.7: Sprague-Dawley rats
[9] = system: TTX-sensitive Nav channels in Sprague Dawley rat DRG neuron
[10] = target: T3, hNav1.5 (Homo sapiens, UniProt Q14524); experiment: cell-based; conditions: Table 12; ratio of PX tonic IC50 values
[11] = in vivo; conditions: female, Sprague-Dawley, rat, sc
[12] = system: hNav1.8; experiment: cell-based; format: cell-based, human; conditions: partially inactivated, hNav1.8 / hNav1.7
[13] = target: hNav1.8 (Homo sapiens, UniProt Q9Y5Y9); experiment: cell-based; format: cell-based
[14] = target: T3, hNav1.5; experiment: cell-based; format: cell-based
[15] = target: T1, hNav1.4; experiment: cell-based; format: cell-based
[16] = target: hNav1.3 (Homo sapiens, UniProt Q9NY46); experiment: cell-based; format: cell-based
[17] = target: human Nav1.6 (Homo sapiens, UniProt Q9UQD0); experiment: cell-based; format: cell-based
[18] = target: human Nav1.1 (Homo sapiens, UniProt P35498); experiment: cell-based; format: cell-based
[19] = target: human Nav1.2 (Homo sapiens, UniProt Q99250); experiment: cell-based; format: cell-based
Chain of human Nav1.2 (Q99250 whole entry): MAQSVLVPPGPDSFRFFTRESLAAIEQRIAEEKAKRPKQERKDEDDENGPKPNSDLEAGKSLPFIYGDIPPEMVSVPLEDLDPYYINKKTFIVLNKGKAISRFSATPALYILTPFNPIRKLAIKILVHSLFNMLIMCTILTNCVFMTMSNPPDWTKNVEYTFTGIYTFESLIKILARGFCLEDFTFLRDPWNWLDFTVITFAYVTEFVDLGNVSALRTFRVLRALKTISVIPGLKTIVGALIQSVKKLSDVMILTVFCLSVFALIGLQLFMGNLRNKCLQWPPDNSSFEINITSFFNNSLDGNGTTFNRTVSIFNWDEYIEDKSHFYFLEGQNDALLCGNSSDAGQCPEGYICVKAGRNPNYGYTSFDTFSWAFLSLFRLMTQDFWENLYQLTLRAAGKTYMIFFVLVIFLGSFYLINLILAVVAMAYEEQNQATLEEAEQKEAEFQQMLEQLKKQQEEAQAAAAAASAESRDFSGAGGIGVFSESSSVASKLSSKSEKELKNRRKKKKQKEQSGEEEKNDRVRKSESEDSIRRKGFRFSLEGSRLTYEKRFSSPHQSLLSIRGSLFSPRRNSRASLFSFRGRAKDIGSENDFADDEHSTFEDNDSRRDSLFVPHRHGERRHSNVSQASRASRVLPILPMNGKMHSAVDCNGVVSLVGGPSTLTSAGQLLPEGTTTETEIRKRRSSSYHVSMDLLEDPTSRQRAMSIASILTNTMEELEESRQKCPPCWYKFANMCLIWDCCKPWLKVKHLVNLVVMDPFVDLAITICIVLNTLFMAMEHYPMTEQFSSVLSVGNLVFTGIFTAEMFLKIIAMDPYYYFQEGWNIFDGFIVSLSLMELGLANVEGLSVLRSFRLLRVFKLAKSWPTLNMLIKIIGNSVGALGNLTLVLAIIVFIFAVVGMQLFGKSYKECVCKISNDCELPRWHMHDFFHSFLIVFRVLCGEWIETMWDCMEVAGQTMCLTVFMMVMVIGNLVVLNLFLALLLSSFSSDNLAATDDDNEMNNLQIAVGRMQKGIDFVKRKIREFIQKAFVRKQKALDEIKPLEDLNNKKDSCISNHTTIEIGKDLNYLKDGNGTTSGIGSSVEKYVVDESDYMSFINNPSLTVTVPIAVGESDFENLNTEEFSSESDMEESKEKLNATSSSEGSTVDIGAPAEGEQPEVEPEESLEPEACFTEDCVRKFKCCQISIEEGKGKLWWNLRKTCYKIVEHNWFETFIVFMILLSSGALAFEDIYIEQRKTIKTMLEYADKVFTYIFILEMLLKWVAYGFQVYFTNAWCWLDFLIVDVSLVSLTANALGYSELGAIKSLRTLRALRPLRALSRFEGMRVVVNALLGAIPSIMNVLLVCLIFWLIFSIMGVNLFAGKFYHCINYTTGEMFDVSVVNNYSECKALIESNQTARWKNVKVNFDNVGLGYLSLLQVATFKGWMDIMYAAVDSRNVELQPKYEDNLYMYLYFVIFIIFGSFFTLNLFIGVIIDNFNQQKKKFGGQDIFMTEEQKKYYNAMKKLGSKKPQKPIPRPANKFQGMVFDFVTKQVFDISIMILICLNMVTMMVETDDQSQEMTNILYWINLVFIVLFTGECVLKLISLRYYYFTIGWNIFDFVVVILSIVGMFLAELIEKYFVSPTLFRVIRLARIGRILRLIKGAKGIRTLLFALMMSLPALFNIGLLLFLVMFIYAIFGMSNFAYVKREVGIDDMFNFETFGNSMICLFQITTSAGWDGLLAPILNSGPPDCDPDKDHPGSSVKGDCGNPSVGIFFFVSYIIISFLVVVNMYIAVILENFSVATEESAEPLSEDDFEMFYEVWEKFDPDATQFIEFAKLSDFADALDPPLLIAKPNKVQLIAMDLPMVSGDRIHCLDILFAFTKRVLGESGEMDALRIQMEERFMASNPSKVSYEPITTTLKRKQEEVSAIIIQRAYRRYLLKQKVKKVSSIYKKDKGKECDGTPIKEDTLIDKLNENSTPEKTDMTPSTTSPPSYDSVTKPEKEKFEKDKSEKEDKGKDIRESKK

Chain of hNav1.8 (Homo sapiens, UniProt Q9Y5Y9) (Q9Y5Y9 whole entry): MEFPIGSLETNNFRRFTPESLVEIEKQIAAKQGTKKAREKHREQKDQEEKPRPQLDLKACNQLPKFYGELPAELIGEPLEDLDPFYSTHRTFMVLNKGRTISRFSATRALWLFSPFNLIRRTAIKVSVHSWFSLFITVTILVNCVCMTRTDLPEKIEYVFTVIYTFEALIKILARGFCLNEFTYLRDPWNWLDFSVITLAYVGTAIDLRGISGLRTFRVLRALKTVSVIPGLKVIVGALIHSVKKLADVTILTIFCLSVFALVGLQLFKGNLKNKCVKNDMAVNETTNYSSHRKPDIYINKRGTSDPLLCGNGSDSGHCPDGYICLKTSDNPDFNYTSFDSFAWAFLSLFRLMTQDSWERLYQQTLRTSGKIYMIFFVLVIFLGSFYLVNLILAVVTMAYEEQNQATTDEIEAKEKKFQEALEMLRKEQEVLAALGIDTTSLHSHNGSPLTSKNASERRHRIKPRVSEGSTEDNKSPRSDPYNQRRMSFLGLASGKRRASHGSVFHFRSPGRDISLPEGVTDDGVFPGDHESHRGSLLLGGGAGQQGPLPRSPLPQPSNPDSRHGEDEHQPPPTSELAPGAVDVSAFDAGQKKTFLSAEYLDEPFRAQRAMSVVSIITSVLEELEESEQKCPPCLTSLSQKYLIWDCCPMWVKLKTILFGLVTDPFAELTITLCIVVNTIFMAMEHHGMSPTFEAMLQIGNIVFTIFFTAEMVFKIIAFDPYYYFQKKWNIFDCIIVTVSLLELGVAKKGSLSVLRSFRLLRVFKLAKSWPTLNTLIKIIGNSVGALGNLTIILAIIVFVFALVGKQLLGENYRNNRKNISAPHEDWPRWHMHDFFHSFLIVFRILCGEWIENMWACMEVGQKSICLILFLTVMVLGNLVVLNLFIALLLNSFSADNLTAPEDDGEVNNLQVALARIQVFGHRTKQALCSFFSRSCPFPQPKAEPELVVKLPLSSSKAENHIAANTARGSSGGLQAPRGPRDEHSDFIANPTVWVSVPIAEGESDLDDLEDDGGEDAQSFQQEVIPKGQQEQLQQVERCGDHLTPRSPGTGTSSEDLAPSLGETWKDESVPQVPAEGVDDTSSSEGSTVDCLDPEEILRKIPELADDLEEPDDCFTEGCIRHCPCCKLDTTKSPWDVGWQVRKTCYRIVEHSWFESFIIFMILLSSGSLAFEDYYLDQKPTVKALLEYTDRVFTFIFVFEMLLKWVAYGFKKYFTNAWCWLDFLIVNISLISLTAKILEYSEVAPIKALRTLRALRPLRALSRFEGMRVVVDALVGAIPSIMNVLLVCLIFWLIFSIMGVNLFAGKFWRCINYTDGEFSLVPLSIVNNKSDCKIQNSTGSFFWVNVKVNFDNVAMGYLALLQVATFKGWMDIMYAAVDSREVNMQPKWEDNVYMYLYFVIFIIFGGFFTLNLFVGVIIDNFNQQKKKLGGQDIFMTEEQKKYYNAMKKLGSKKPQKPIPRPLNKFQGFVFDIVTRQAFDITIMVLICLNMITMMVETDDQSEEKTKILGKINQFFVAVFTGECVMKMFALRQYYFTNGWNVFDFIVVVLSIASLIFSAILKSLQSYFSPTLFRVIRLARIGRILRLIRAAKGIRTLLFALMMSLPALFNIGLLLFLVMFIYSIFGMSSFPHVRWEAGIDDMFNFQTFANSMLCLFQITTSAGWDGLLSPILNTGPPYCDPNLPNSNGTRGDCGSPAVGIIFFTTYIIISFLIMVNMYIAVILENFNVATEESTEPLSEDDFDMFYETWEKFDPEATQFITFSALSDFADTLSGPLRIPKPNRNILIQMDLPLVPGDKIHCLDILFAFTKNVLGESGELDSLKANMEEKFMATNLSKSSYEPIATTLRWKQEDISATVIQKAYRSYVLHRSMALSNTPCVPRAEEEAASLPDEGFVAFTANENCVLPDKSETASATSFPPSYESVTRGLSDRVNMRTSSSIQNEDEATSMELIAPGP

Cc1cccc(C)c1OCC(C)N (centres unmarked) [mexilitine, reference compound]
reversal of thermal hyperalgesia, positive control [1]: sufficient to significantly reverse thermal hyperalgesia

C#CC[C@H](N)C(=O)N[C@@H](Cc1ccc(O)cc1)C(=O)N[C@H]1CSSC[C@@H]2NC(=O)[C@@H]3CSSC[C@@H](C(=O)N[C@@H](CCCNC(=N)N)C(=O)N[C@@H](CCCCN)C(=O)N[C@@H](CCC(=O)O)C(=O)N[C@H](C(N)=O)[C@@H](C)CC)NC(=O)[C@H](Cc4c[nH]c5ccc(Br)cc45)NC(=O)[C@H](CC(C)C)NC(=O)[C@H](CCCCN)NC(=O)[C@H](CSSC[C@H](NC(=O)[C@H]([C@@H](C)O)NC(=O)[C@H](Cc4c[nH]c5ccccc45)NC(=O)[C@H](CCCC)NC(=O)[C@H](Cc4c[nH]c5ccccc45)NC(=O)[C@H](CCCCN)NC(=O)[C@H](CCC(N)=O)NC1=O)C(=O)N[C@@H](CC(=O)O)C(=O)N[C@@H](CO)C(=O)N[C@@H](CCCCN)C(=O)N[C@@H](CCCNC(=N)N)C(=O)N[C@@H](C)C(=O)N3)NC(=O)[C@H](CCCNC(=N)N)NC(=O)[C@H](CC(C)C)NC(=O)CNC(=O)[C@H](CCC(=O)O)NC2=O [compound 858]
IC50 ([2]; PatchXpress, tonic block, read-out: PX hNav1.4 Tonic IC50): 40.4 nM
Nav1.4/Nav1.7 [2]: 1036
IC50 ([3]; Table 12, PatchXpress, tonic block): 0.039 nM
IC50 ([3]; Table 15): 0.059 nM
block of hNav1.7 current [4]: approximately 90%
IC50 ([4]; WCPC, partially inactivated, hNav1.7, n=2, read-out: Mean IC50): 0.13 nM
potency against hNav1.7, in words ([4]; manual WCPC): sub-nanomolar potent inhibitor
IC50 [5]: 3.8 nM
block of TTX-sensitive Nav current, in words ([5]; 30 nM, C57 Black 6 mouse DRG neuron): blocks most of TTX-sensitive Nav current
potency on TTX-S current in mDRG neurons, in words ([5]; manual patch clamp): single digit-nanomolar inhibitor
1.x/1.7 [5]: 29
Nav1.6/Nav1.7 [6]: 829
IC50 [6]: 49.2 nM

C#CC[C@@H]1NC(=O)[C@@H]2CSSC[C@H](NC(=O)[C@H](Cc3ccc(O)cc3)NC(=O)[C@@H](N)CC#N)C(=O)N[C@@H](CCC(N)=O)C(=O)N[C@@H](CCCCN)C(=O)N[C@@H](Cc3c[nH]c4ccccc34)C(=O)N[C@@H](CCCC)C(=O)N[C@@H](Cc3c[nH]c4ccccc34)C(=O)N[C@@H]([C@@H](C)O)C(=O)N[C@H]3CSSC[C@H](NC(=O)[C@H](CCCNC(=N)N)NC(=O)[C@H](CC(C)C)NC(=O)CNC1=O)C(=O)N[C@@H](CCCCN)C(=O)N[C@@H](CC(C)C)C(=O)N[C@@H](Cc1c[nH]c4ccccc14)C(=O)N[C@H](C(=O)N[C@@H](CCCNC(=N)N)C(=O)N[C@@H](CCCCN)C(=O)N[C@@H](CCC(=O)O)C(=O)N[C@H](C(N)=O)[C@@H](C)CC)CSSC[C@H](NC(=O)[C@H](C)NC(=O)[C@H](CCCNC(=N)N)NC(=O)[C@H](CCCCN)NC(=O)[C@H](CO)NC(=O)[C@H](CC(=O)O)NC3=O)C(=O)N2 [compound 395]
Cmax ([7]; 2 mg/kg): 730 nM
half-life ([7]; 2 mg/kg): ~2.3 h
IC50 ([3]; Table 15): 0.779 nM
mean Cmax over the mouse DRG Nav1.7 IC50 (CD-1 male mouse, 2 mg/kg s.c.): 46 fold
IC50 [5]: 15.9 nM
potency relative to wild type peptide, in words ([5]; TTX-sensitive current in mouse DRG neurons): equipotent
mean Cmax over the rat DRG Nav1.7 ([8]; 1 mg/kg s.c.): 56 fold
mean Cmax over the rat DRG Nav1.7 ([8]; 3 mg/kg s.c.): 306 fold
mean Cmax over the rat DRG Nav1.7 ([8]; 10 mg/kg s.c.): 684 fold
tolerability ([8]; Sprague-Dawley rats, 1, 3 or 10 mg/kg single s.c. administration): All the doses were tolerated
Nav1.6/Nav1.7 [6]: 94
IC50 [6]: 73.2 nM
IC50 [9]: 9.25 nM
Nav1.5/Nav1.7 [10]: 256
Cmax ([11]; 1 mg/kg): 79 nM
Tmax ([11]; 1 mg/kg): 1 h
Cmax ([11]; 3 mg/kg): 430 nM
Tmax ([11]; 3 mg/kg): 3 h
Cmax ([11]; 10 mg/kg): 970 nM
Tmax ([11]; 10 mg/kg): 3 h

C#CC[C@H](N)C(=O)N[C@@H](Cc1ccc(O)cc1)C(=O)N[C@H]1CSSC[C@@H]2NC(=O)[C@@H]3CSSC[C@@H](C(=O)N[C@@H](CCCNC(=N)N)C(=O)N[C@@H](CCCCN)C(=O)N[C@@H](CCC(=O)O)C(=O)N[C@H](C(N)=O)[C@@H](C)CC)NC(=O)[C@H](Cc4c[nH]c5ccccc45)NC(=O)[C@H](CC(C)C)NC(=O)[C@H](CCCCN)NC(=O)[C@H](CSSC[C@H](NC(=O)[C@H]([C@@H](C)O)NC(=O)[C@H](Cc4c[nH]c5ccccc45)NC(=O)[C@H](CCCC)NC(=O)[C@H](Cc4c[nH]c5ccccc45)NC(=O)[C@H](CCCCN)NC(=O)[C@H](CCC(N)=O)NC1=O)C(=O)N[C@@H](CC(=O)O)C(=O)N[C@@H](CO)C(=O)N[C@@H](CCCCN)C(=O)N[C@@H](CCCNC(=N)N)C(=O)N[C@@H](C)C(=O)N3)NC(=O)[C@H](CCCNC(=N)N)NC(=O)[C@H](CC(C)C)NC(=O)CNC(=O)[C@H](CCC(=O)O)NC2=O [compound 328]
Nav1.4/Nav1.7 [2]: 253
Cmax ([7]; 5 mg/kg): 2200 nM
half-life ([7]; 5 mg/kg): ~4.5 h
IC50 ([3]; Table 15): 0.548 nM
1.x/1.7 [12]: >1613
IC50 [13]: > 1000 nM
block of TTX-resistant hNav1.8 current ([13]; 1000 nM): approximately 30%
IC50 ([13]; WCPC, partially inactivated, hNav1.8, n=2, read-out: Mean IC50): > 1000 nM
block of hNav1.5 current ([14]; 1000 nM, held at −77 mV): less than 10%
IC50 ([14]; WCPC, partially inactivated, hNav1.5, n=2, read-out: Mean IC50): > 1000 nM
IC50 ([14]; manual WCPC, ~20% inactivation, read-out: IC50 of hNav1.5 inhibition): > 1000 nM
1.x/1.7 ([14]; partially inactivated, hNav1.5 / hNav1.7): >1613
mean Cmax over the mouse DRG Nav1.7 IC50 (male CD-1 mice, 5 mg/kg s.c.): 196 fold
block of hNav1.7 current [4]: approximately 95%
potency against hNav1.7, in words ([4]; manual WCPC): sub-nanomolar potency
selectivity for hNav1.7 against other human VGSCs ([4]; manual WCPC, hNav1.1-hNav1.8): > 30 fold
IC50 ([4]; read-out: IC50 of hNav1.7 inhibition): 0.62 nM
block of hNav1.4 current ([15]; 1000 nM, held at −78 mV): approximately 90%
IC50 ([15]; manual WCPC, partially inactivated state, read-out: IC50 of hNav1.4 inhibition): 74.6 nM
1.x/1.7 ([15]; partially inactivated, hNav1.4 / hNav1.7): 120
block of hNav1.3 current ([16]; 1000 nM, held at −68 mV): approximately 90%
IC50 ([16]; manual WCPC, ~20% inactivation, read-out: IC50 of hNav1.3 inhibition): 52.5 nM
1.x/1.7 ([16]; partially inactivated, hNav1.3 / hNav1.7): 85
IC50 [5]: 11.2 nM
block of TTX-sensitive Nav current ([5]; 300 nM, C57 Black 6 mouse DRG neuron): approximately 90%
1.x/1.7 [5]: 18
block of hNav1.6 current, in words ([17]; 1000 nM, held at −67 mV): blocks the majority of Nav current
IC50 ([17]; manual patch clamp, ~20% inactivation, read-out: IC50 hNav1.6): 19.4 nM
1.x/1.7 ([17]; partially inactivated, hNav1.6 / hNav1.7): 31
block of hNav1.1 current ([18]; 1000 nM, held at −70 mV): approximately 95%
IC50 ([18]; manual patch clamp, ~20% inactivation, read-out: IC50 hNav1.1): 27.2 nM
1.x/1.7 ([18]; partially inactivated, hNav1.1 / hNav1.7): 44
selectivity for Nav1.7 over Nav1.6 ([6]; PatchXpress): 334 fold
Nav1.6/Nav1.7 [6]: 334
IC50 [6]: 183 nM
IC50 [9]: 30.7 nM
block of TTX-sensitive Nav current ([9]; 300 nM, Sprague Dawley rat DRG neuron held at −78 mV): approximately 85%
1.x/1.7 ([9]; partially inactivated, rTTX-S / hNav1.7): 50
block of hNav1.2 current, in words ([19]; 1000 nM, held at −65 mV): blocks the majority of Nav current
IC50 ([19]; manual patch clamp, ~20% inactivation, read-out: IC50 hNav1.2): 44.4 nM
1.x/1.7 ([19]; partially inactivated, hNav1.2 / hNav1.7): 72
Nav1.5/Nav1.7 [10]: 5854

C#CC[C@@H]1NC(=O)[C@@H]2CSSC[C@H](NC(=O)[C@H](Cc3ccc(O)cc3)NC(=O)[C@@H](N)CC#N)C(=O)N[C@@H](CCC(N)=O)C(=O)N[C@@H](CCCCN)C(=O)N[C@@H](Cc3c[nH]c4ccccc34)C(=O)N[C@@H](CCCC)C(=O)N[C@@H](Cc3c[nH]c4ccccc34)C(=O)N[C@@H]([C@@H](C)O)C(=O)N[C@H]3CSSC[C@H](NC(=O)[C@H](CCCNC(=N)N)NC(=O)[C@H](CC(C)C)NC(=O)CNC1=O)C(=O)N[C@@H](CCCCN)C(=O)N[C@@H](CC(C)C)C(=O)N[C@@H](Cc1c[nH]c4ccccc14)C(=O)N[C@H](C(=O)N[C@@H](CCCNC(=N)N)C(=O)N[C@@H](CCCCN)C(=O)N[C@@H](CCC(=O)O)C(=O)N[C@H](C(N)=O)[C@@H](C)CC)CSSC[C@H](NC(=O)[C@H](C)NC(=O)[C@H](CCCNC(=N)N)NC(=O)[C@H](CCCCN)NC(=O)[C@H](CO)NC(=O)[C@H](CC(=O)O)NC3=O)C(=O)N2 [CyA-[Nle6,Glu28]JzTx-V(1-29)]
IC50 [9]: 9.25 nM
